How the values were obtained:
Format in all cases: biochemical
MKK4 = target: T1, MKK4 (Homo sapiens, UniProt P45985); assay: 33PanQinase kinase assay, MKK4 potency; details: based on inhibition of enzyme activity at a single concentration or on IC50-values
T1 construct: purchased ProQinase GmbH, Freiburg, Germany (assay service)
T1 sequence (P45985 1-399): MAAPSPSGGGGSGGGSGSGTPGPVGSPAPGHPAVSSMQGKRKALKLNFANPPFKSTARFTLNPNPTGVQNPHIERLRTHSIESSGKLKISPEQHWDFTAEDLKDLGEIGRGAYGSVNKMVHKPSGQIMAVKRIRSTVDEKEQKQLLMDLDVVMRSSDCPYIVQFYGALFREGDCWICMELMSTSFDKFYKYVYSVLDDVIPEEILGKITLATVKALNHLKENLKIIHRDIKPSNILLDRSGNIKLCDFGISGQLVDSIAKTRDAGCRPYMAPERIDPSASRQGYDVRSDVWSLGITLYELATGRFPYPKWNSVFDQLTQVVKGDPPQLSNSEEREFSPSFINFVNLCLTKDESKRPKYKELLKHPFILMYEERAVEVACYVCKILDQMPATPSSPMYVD
Description: (§1) The kinase activities of the compounds of the invention were measured using the 33PanQinase® Assay Service provided by ProQinase GmbH, Freiburg, Germany. Details of the assay conditions are disclosed on the website of ProQinase (https://www.proqinase.com/products-services-biochemical-assay-services/kinase-assays).
(§2) In brief, all kinase assays were performed in 96-well FlashPlates™ from PerkinElmer (Boston, MA, USA) in a 50 μl reaction volume. The reaction cocktail was pipetted in four steps in the following order: • 20 μl of assay buffer (standard buffer) • 5 μl of ATP solution (in H2O) • 5 μl of test compound (in 10% DMSO) • 20 μl enzyme/substrate mix
(§3) The assay for all protein kinases contained 70 mM HEPES-NaOH pH7.5, 3 mM MgCl2, 3 mM MnCl2, 3 μM Na-orthovanadate, 1.2 mM DTT, 50 μg/ml PEG20000, ATP (variable concentrations, corresponding to the apparent ATP-Km of the respective kinase), [γ-^33P]-ATP (approx. […] per well), protein kinase and substrate.
(§4) The reaction cocktails were incubated at 30° C. for 60 minutes. The reaction is stopped with 50 μl of 2% (v/v) H3PO4, plates were aspirated and washed two times with 200 μl 0.9% (w/v) NaCl. Incorporation of ^33Pi was determined with a microplate scintillation counter (Microbeta, Wallac).
(§5) All assays were performed with a BeckmanCoulter/SAGIAN™ Core System.
(§6) In case of single concentration assays, the potency of the test compound is expressed as % residual activity. For determination of IC50-values, serial dilutions in the final concentration range between 100 μM and 3 nM (10 concentrations) were tested. The fitting model for the IC50 determinations was “Sigmoidal response (variable slope)” with parameters “top” fixed at 100% and “bottom” at 0%. The fitting method used was a least-squares fit.

BRaf = target: T2, BRaf (Homo sapiens, UniProt P15056); assay: 33PanQinase kinase assay, selectivity against BRaf; details: ratio IC50 (BRaf)/IC50 (MKK4)
T2 construct: purchased ProQinase GmbH, Freiburg, Germany (assay service)
T2 sequence (P15056 whole entry): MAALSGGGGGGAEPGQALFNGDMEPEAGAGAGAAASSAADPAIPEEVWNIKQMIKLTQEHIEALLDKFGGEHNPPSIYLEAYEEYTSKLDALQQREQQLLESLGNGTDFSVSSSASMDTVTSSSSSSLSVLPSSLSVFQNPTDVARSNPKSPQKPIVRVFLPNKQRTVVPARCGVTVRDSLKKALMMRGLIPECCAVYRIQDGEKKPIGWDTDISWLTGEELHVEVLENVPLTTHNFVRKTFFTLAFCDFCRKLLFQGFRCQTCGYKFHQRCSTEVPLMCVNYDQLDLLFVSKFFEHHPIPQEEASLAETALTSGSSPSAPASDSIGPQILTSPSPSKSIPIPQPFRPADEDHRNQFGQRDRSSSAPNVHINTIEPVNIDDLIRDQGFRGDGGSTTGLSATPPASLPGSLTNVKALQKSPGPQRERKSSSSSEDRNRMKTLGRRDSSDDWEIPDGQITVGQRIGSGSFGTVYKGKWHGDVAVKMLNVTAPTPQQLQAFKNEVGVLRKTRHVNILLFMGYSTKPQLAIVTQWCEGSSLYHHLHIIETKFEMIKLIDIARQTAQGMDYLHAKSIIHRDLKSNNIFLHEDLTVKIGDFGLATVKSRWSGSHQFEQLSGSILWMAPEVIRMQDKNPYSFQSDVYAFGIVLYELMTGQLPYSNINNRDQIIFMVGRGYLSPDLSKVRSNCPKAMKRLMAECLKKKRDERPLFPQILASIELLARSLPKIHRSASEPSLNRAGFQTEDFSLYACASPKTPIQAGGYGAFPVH
Description: as §1, §2, §3, §4, §5, §6
(§7) Selectivity of test compounds against BRaf, JNK1 and MKK7, altogether denominated as off-targets was calculated by the ratio of IC50 (off-target)/IC50 (MKK4) and categorized as follows: […]

JNK1 = target: T3, JNK1 (Homo sapiens, UniProt P45983); assay: 33PanQinase kinase assay, selectivity against JNK1; details: ratio IC50 (JNK1)/IC50 (MKK4)
T3 construct: purchased ProQinase GmbH, Freiburg, Germany (assay service)
T3 sequence (P45983 whole entry): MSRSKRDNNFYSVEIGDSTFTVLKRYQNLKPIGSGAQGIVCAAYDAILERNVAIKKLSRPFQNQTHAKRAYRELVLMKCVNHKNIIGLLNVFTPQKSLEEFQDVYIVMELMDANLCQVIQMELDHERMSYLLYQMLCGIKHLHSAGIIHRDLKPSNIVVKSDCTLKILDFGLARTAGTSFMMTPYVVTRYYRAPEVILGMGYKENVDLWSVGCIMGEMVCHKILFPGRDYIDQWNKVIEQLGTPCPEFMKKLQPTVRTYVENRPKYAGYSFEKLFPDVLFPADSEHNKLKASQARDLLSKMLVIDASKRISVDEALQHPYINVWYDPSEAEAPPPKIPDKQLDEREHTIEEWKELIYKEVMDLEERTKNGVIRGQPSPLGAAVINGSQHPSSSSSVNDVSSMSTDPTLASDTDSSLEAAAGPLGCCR
Description: as §1, §2, §3, §4, §5, §6, §7

MKK7 = target: T4, MKK7 (Homo sapiens, UniProt O14733); assay: 33PanQinase kinase assay, selectivity against MKK7; details: ratio IC50 (MKK7)/IC50 (MKK4)
T4 construct: purchased ProQinase GmbH, Freiburg, Germany (assay service)
T4 sequence (O14733 1-419): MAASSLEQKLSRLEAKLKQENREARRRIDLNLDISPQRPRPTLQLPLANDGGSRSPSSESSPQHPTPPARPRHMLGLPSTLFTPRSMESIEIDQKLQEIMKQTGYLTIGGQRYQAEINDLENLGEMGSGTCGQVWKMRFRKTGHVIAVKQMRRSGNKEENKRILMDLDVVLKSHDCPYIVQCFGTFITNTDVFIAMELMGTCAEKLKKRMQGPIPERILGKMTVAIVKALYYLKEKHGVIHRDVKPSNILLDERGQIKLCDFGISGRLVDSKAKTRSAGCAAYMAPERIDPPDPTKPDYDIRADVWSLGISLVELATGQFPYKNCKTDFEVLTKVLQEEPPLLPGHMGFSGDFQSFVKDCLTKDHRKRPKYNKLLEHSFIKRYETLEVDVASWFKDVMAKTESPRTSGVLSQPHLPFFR
Description: as §1, §2, §3, §4, §5, §6, §7

Row | Compound | IC50 (MKK4) [nM] | Selectivity BRaf, IC50(off-target)/IC50(MKK4) (BRaf) | Selectivity MKK7, IC50(off-target)/IC50(MKK4) (MKK7) | Selectivity JNK1, IC50(off-target)/IC50(MKK4) (JNK1)
1 | CCCS(=O)(=O)Nc1c(F)ccc(C(=O)c2c[nH]c3ncc(-c4cncnc4C)cc23)c1F [Example 9] | < 100 | +++ (IC50(off-target)/IC50(MKK4) > 100) | +++ (IC50(off-target)/IC50(MKK4) > 100) | ++ (100 ≥ IC50(off-target)/IC50(MKK4) > 10)
2 | CCCS(=O)(=O)Nc1c(F)ccc(C(=O)c2c[nH]c3ncc(-c4cnc(OC)nc4C)cc23)c1F [Example 8] | < 100 | ++ (100 ≥ IC50(off-target)/IC50(MKK4) > 10) | +++ (IC50(off-target)/IC50(MKK4) > 100) | + (10 ≥ IC50(off-target)/IC50(MKK4) > 3)
3 | CCCS(=O)(=O)Nc1c(F)ccc(C(=O)c2c[nH]c3ncc(-c4cnc(C5CCCC5)nc4)cc23)c1F [Example 6] | 1000 to 10000 | +++ (IC50(off-target)/IC50(MKK4) > 100) | +++ (IC50(off-target)/IC50(MKK4) > 100) | ++ (100 ≥ IC50(off-target)/IC50(MKK4) > 10)
4 | CCCS(=O)(=O)Nc1c(F)ccc(C(=O)c2c[nH]c3ncc(-c4cnc(C5CC5)nc4SC)cc23)c1F [Example 12] | 100 to 1000 | ++ (100 ≥ IC50(off-target)/IC50(MKK4) > 10) | +++ (IC50(off-target)/IC50(MKK4) > 100) | ++ (100 ≥ IC50(off-target)/IC50(MKK4) > 10)
5 | O=C(c1c(F)cc(F)c(NS(=O)(=O)Cc2ccccc2)c1F)c1c[nH]c2ncc(-c3cnc(C4CC4)nc3)cc12 [Example 14] | < 100 | ++ (100 ≥ IC50(off-target)/IC50(MKK4) > 10) | +++ (IC50(off-target)/IC50(MKK4) > 100) | ++ (100 ≥ IC50(off-target)/IC50(MKK4) > 10)
6 | CCCS(=O)(=O)Nc1c(F)ccc(C(=O)c2c[nH]c3ncc(-c4ccc(C(=O)NOCCO)cc4)cc23)c1F [Example 3, 4-(3-(2,4-difluoro-3-(propylsulfonamido)benzoyl)-1H-pyrrolo[2,3-b]pyridin-5-yl)-N-(2-hydroxyethoxy)benzamide] | < 100 | ++ (100 ≥ IC50(off-target)/IC50(MKK4) > 10) | +++ (IC50(off-target)/IC50(MKK4) > 100) | ++ (100 ≥ IC50(off-target)/IC50(MKK4) > 10)
7 | CCCS(=O)(=O)Nc1c(F)ccc(C(=O)c2c[nH]c3ncc(-c4cnc(OCC(C)(C)C)nc4)cc23)c1F [Example 13] | > 10000 | + (10 ≥ IC50(off-target)/IC50(MKK4) > 3) | + (10 ≥ IC50(off-target)/IC50(MKK4) > 3) | + (10 ≥ IC50(off-target)/IC50(MKK4) > 3)
8 | CCCS(=O)(=O)Nc1c(F)ccc(C(=O)c2c[nH]c3ncc(-c4ccc(P(C)(C)=O)cc4)cc23)c1F [Example 4] | < 100 | ++ (100 ≥ IC50(off-target)/IC50(MKK4) > 10) | +++ (IC50(off-target)/IC50(MKK4) > 100) | ++ (100 ≥ IC50(off-target)/IC50(MKK4) > 10)
9 | CCCS(=O)(=O)Nc1c(F)ccc(C(=O)c2c[nH]c3ncc(-c4cnc(C5CCC5)nc4)cc23)c1F [Example 5] | 100 to 1000 | +++ (IC50(off-target)/IC50(MKK4) > 100) | +++ (IC50(off-target)/IC50(MKK4) > 100) | +++ (IC50(off-target)/IC50(MKK4) > 100)
10 | CCCS(=O)(=O)Nc1c(F)cc(F)c(C(=O)c2c[nH]c3ncc(-c4cnc(C5CC5)nc4)cc23)c1F [Example 7] | < 100 | +++ (IC50(off-target)/IC50(MKK4) > 100) | +++ (IC50(off-target)/IC50(MKK4) > 100) | +++ (IC50(off-target)/IC50(MKK4) > 100)

Continued, in another order:

Row | IC50 (MKK4) [nM] | Selectivity BRaf, IC50(off-target)/IC50(MKK4) (BRaf) | Selectivity MKK7, IC50(off-target)/IC50(MKK4) (MKK7) | Compound | Selectivity JNK1, IC50(off-target)/IC50(MKK4) (JNK1)
11 | < 100 | +++ (IC50(off-target)/IC50(MKK4) > 100) | +++ (IC50(off-target)/IC50(MKK4) > 100) | CCCS(=O)(=O)Nc1c(F)ccc(C(=O)c2c[nH]c3ncc(-c4cnc(C)nc4C)cc23)c1F [Example 10] | +++ (IC50(off-target)/IC50(MKK4) > 100)
12 | < 100 | +++ (IC50(off-target)/IC50(MKK4) > 100) | +++ (IC50(off-target)/IC50(MKK4) > 100) | CCCS(=O)(=O)Nc1c(F)ccc(C(=O)c2c[nH]c3ncc(-c4cnc(C5CC5)nc4C)cc23)c1F [Example 11] | +++ (IC50(off-target)/IC50(MKK4) > 100)
